Our source for the IC50 values is patent publication US6596772B1, “Phosphate mimics and methods of treatment using phosphatase inhibitors” (Sugen, Inc., priority 1999, dated 2003).

Like-named read-outs stand apart in the source and are kept apart here.

Experiment in all cases: PTP IC50 assay, fluorescent substrate DiFMUP
Assay type in all cases: biochemical

Assay [1] addresses T1, PTP SHP2 (Homo sapiens, UniProt Q06124).
T1 construct: The catalytic domain was amplified using the following oligonucleotides; made in house; host or cells: Sf-9 insect cells (pFastBac-G2T)
T1 sequence (Q06124 247-517 limits assumed): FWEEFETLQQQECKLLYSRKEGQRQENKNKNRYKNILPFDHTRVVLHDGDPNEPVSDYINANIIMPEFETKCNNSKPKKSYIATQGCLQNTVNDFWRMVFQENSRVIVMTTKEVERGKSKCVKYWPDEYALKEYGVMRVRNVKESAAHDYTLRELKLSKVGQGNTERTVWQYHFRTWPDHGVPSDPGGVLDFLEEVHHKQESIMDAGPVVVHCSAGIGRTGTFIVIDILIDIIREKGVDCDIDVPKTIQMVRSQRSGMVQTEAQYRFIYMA
Conditions: DiFMUP as substrate, 25° C.; read-out: PTP IC50 SHP2. The text has this: SHP-2 cDNA was used as described earlier (Vogel W., et al.,1993, Science, 259:1611-4). The catalytic domain was amplified using the following oligonucleotides 5′oligo: 5′-[…]-3′ (SEQ ID NO: 2) 3′oligo: 5′-[…]-3′ (SEQ ID NO: 3) and subsequently subcloned into BamH1-Xba-1 sites. It was then ligated into pfas Bac-G2T BamH1-Xba-1 sites.
(§1) The following in vitro assay procedure is preferred to determine the level of activity and effect of the different compounds of the present invention on one or more of the PTPs. Similar assays can be designed along the same lines for any PTP using techniques well known in the art.
(§2) The catalytic assays described herein are performed in a 96-well format. The general procedure begins with the determination of PTP optimal pH using a three-component buffer system that minimizes ionic strength variations across a wide range of buffer pH. Next, the Michaelis-Menten constant, or Km, is determined for the substrate 6,8-difluoro-4-methylumbelliferyl phosphate (DiFMUP). This Km value is subsequently used as the substrate reaction concentration for compound screening. Finally, the test PTP is exposed to varying concentrations of compound for fifteen minutes and allowed to react with substrate for ten minutes. The results are plotted as percent inhibition versus compound concentration and the IC50 interpolated from the plot.
(§3) All assays were performed using DiFMUP as substrate. The optimum pH and substrate Km was determined for each PTP used.
(§4) PTPase activity was assayed at 25° C. in a 100-μl reaction mixture containing an appropriate concentration of DiFMUP as substrate. The reaction was initiated by addition of the purified PTP and quenched after 10 min by addition of 1% H2O2/100 mM NaCl. The non-enzymatic hydrolysis of the substrate was corrected by measuring the control without the addition of the enzyme. The amount of DiFMU produced was determined from the increase in the fluorescence (360 nm excitation/460 nm emission) over that of background in the absence of PTPase. To determine the kinetic parameter, Km, the initial velocities were measured at various substrate concentrations and the data were fitted to the Michaelis equation where velocity=(Vmax*[S])/(Km+[S]), and [S]=substrate reaction concentration.
(§5) The effect of the compounds on PTP was evaluated at 25° C. using DiFMUP as substrate. PTP was pre-incubated for fifteen minutes with various concentrations of compound. Substrate was then added at a fixed concentration (usually equal to the Km previously calculated). After 10 minutes, the reaction was quenched. The hydrolysis of DiFMUP was followed as described above. The percent inhibition was calculated as follows: Percent Inhibition=[(control signal−compound signal)/control signal]×100%. The IC50 was then determined by interpolation of a percent inhibition versus compound concentration plot.
(§6) Plasmids designed for bacterial GST-PTP fusion protein expression were derived by insertion of PCR-generated human PTP fragments into pGEX vectors (Pharmacia Biotech). Several of these constructs were then used to subclone phosphatases into pFastBac-1 for expression in Sf-9 insect cells. Oligonucleotides used for the initial amplification of PTP genes are as described above. The cDNAs were prepared using the Gilbo BRL superscript preamplification system on RNAs purchased from Clontech.

For assay [2], the target named is T2, PTP EPSILON (Homo sapiens, UniProt P23469).
T2 construct: made in house; host or cells: Sf-9 insect cells (pFastBac-G2T); a pGEX 6P-1 construct also existed
T2 sequence (P23469 80-393 limits assumed): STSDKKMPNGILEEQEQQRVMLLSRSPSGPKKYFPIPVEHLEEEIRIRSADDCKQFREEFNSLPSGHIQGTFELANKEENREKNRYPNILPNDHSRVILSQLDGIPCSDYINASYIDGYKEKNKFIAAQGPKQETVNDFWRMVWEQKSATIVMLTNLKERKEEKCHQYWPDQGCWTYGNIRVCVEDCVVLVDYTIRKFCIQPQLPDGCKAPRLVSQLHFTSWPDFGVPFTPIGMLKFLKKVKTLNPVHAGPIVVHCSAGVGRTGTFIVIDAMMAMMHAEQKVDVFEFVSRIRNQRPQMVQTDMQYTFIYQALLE
Source text: The PTPepsilon cDNA was amplified from human placenta single-strand cDNA (Clontech RNA) using the following oligonucleotides: 5′oligo: 5′-[…]-3′ (SEQ ID NO: 6) 3′oligo: 5′-[…]-3′ (SEQ ID NO: 7) After cloning this PCR product into the Bam HI/Xho I sites of pGEX 6P-1, this phosphatase was subcloned using the same restriction sites in pFastBac-G2T.
as §1, §2, §3, §4, §5, §6

Assay [3] deals with T3, PTP 1B (Homo sapiens, UniProt P18031).
T3 construct: made in house; host or cells: Sf-9 insect cells (pFastBac-G2T)
T3 sequence (P18031 1-435): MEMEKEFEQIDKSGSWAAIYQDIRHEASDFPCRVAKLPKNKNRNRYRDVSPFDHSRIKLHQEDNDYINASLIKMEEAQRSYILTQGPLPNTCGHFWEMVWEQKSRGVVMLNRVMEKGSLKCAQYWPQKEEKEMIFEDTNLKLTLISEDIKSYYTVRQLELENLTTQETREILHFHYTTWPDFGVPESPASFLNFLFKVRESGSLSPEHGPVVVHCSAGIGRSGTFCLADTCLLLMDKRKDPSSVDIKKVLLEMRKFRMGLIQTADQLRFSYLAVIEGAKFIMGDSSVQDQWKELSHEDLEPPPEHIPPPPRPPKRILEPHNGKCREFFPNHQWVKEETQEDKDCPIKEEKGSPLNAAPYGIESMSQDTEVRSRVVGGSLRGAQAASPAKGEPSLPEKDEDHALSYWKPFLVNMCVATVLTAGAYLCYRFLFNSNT
Source text: The PTP1b cDNA was amplified from human placenta single strand cDNA (Clontech RNA) using the following oligonucleotides: 5′oligo: 5′-[…] (SEQ ID NO: 4) 3′oligo: 5′-[…] (SEQ ID NO: 5) It was subsequently ligated into pFasBac G2TBamH1Xba-1 sites.
as §1, §2, §3, §4, §5, §6

Setting [4] is: DiFMUP as substrate, 25° C., read-out: PTP IC50 Epilson.
Setting [5] is: DiFMUP as substrate, 25° C., read-out: PTP IC50 1B.

The term IC50 denotes the concentration that inhibits the measured activity by half.

Regarding `Cn1c(C(=O)O)cc2cc(NS(=O)(=O)C(F)(F)F)ccc21` [Example 78, 1-Methyl-5-trifluoromethanesulfonylamino-1H-indole-2-carboxylic acid], the IC50 in assay [1], in assay [2] (setting [4]) and in assay [3] (setting [5]) was > 100 µM in each case.

As to `CCOC(=O)c1cc(Oc2ccc(S(=O)(=O)C(F)(F)F)cc2[N+](=O)[O-])c(C(=O)OCC)cc1Oc1ccc(S(=O)(=O)C(F)(F)F)cc1[N+](=O)[O-]` [Example 54, 2,5-Bis-(2-nitro-4-trifluoromethanesulfonyl-phenoxy)-terephthalic acid diethyl ester], the values for the IC50 in assay [1] and in assay [3] (setting [5]) were 0.7 µM and > 20 µM, respectively.

`CCOC(=O)c1cc2cc(NS(=O)(=O)C(F)(F)F)ccc2n1CC(=O)OC(C)(C)C` [Example 94, 1-tert-Butoxycarbonylmethyl-5-trifluoromethanesulfonylamino-1H-indole-2-carboxylic acid ethyl ester]: the IC50 in assay [1] came to 1.5 µM; in assay [2] (setting [4]), 4.2 µM; in assay [3] (setting [5]), 12 µM.

`O=C(O)COc1ccc(S(=O)(=O)c2ccc(Oc3ccc(S(=O)(=O)C(F)(F)F)cc3[N+](=O)[O-])cc2)cc1` [Example 52, {4-[4-(2-Nitro-4-trifluoromethanesulfonyl-phenoxy)-benzenesulfonyl]-phenoxy}-acetic acid]: the IC50 in assay [1] is 8 µM; in assay [2] (setting [4]) it was 64.5 µM; in assay [3] (setting [5]), > 20 µM.

As for `CCn1c(C(=O)O)nc2cc(S(=O)(=O)C(F)(F)F)ccc21` [Example 42, 1-Ethyl-5-trifluoromethanesulfonyl-1H-benzoimidazole-2-carboxylic acid], the IC50 is > 100 µM in assay [1], 98 µM in assay [2] (setting [4]) and > 20 µM in assay [3] (setting [5]).

For `O=C(O)c1cccc(NC(=O)c2cc3cc(NS(=O)(=O)C(F)(F)F)ccc3[nH]2)c1` [Example 83, 3-[(5-Trifluoromethanesulfonylamino-1H-indole-2-carbonyl)-amino]-benzoic acid], the IC50 in assay [1] is 58.5 µM; in assay [2] (setting [4]), 8.4 µM; in assay [3] (setting [5]), > 20 µM.

With `CCn1c(-c2ccc(C(=O)O)cc2)nc2cc(S(=O)(=O)C(F)(F)F)ccc21` [Example 36, 4-(1-Ethyl-5-trifluoromethanesulfonyl-1H-benzoimidazol-2-yl)-benzoic acid], the IC50 is 58 µM in assay [1], 61.2 µM in assay [2] (setting [4]) and > 20 µM in assay [3] (setting [5]).

As for `NS(=O)(=O)c1ccc(NCC(COc2ccc(S(=O)(=O)C(F)(F)F)cc2[N+](=O)[O-])Oc2ccc(S(=O)(=O)C(F)(F)F)cc2[N+](=O)[O-])cc1` (centres unmarked) [Example 62, 4-[2,3-Bis-(2-nitro-4-trifluoromethanesulfonyl-phenoxy)-propylamino]-benzenesulfonamide], the concentration for half-maximal inhibition (IC50) in assay [1] came out at 2.3 µM; in assay [2] (setting [4]) it was 5.7 µM.

For `O=S(=O)(c1ccc(-c2ncc(-c3ccc4ccccc4c3)o2)cc1)C(F)F` [Example 64, 2-[4-(Difluoro-methanesulfonyl)-phenyl]-5-naphthalen-2-yl-oxazole], the IC50 stood at 5.9 µM in assay [1] and 5.4 µM in assay [3] (setting [5]).

Take `CCn1c(-c2ccc(C(=O)OC)cc2)nc2cc(S(=O)(=O)C(F)(F)F)ccc21` [Example 35, 4-(1-Ethyl-5-trifluoromethanesulfonyl-1H-benzoimidazol-2-yl)-benzoic acid methyl ester]: the IC50 in assay [1] worked out at 31.6 µM; in assay [2] (setting [4]) it was 32.5 µM.

Take `O=[N+]([O-])c1cc(S(=O)(=O)C(F)(F)F)ccc1OCC(CN1CCOCC1)Oc1ccc(S(=O)(=O)C(F)(F)F)cc1[N+](=O)[O-]` (centres unmarked) [Example 56, 4-[2,3-Bis-(2-nitro-4-trifluoromethanesulfonyl-phenoxy)-propyl]-morpholine]: the figures for the IC50 in assay [1] and in assay [3] (setting [5]) were 2.9 µM and 4.8 µM, respectively.

For the molecule `NS(=O)(=O)c1ccc(NCC(O)COc2ccc(S(=O)(=O)C(F)(F)F)cc2[N+](=O)[O-])cc1` (centres unmarked) [Example 61, 4-[2-Hydroxy-3-(2-nitro-4-trifluoromethanesulfonyl-phenoxy)-propylamino]-benzenesulfonamide], the IC50 in assay [1] was determined as 1.7 µM; in assay [2] (setting [4]), 7.4 µM.

With `Cc1ccc(Nc2ccc(S(=O)(=O)C(F)(F)C(F)F)cc2[N+](=O)[O-])cc1` [Example 65, [2-Nitro-4-(1,1,2,2-tetrafluoro-ethanesulfonyl)-phenyl]-p-tolyl-amine], the IC50 stood at 13.1 µM in assay [1] and 11.5 µM in assay [3] (setting [5]).

In the case of `O=[N+]([O-])c1cc(S(=O)(=O)C(F)(F)F)ccc1OCC(CN1CCCCC1)Oc1ccc(S(=O)(=O)C(F)(F)F)cc1[N+](=O)[O-]` (centres unmarked) [Example 55, 1-[2,3-Bis-(2-nitro-4-trifluoromethanesulfonyl-phenoxy)-propyl]-piperidine], the concentration for half-maximal inhibition (IC50) is 3.3 µM in assay [1] and 2.4 µM in assay [2] (setting [4]).

On to `Cc1cc2cc(NS(=O)(=O)C(F)(F)F)ccc2n1CC(=O)Nc1ccc(C(=O)O)cc1` [Example 85, 4-[2-(2-Methyl-5-trifluoromethanesulfonylamino-indol-1-yl)-acetylamino]-benzoic acid], for which the results for the IC50 in assay [2] (setting [4]) and in assay [3] (setting [5]) were > 20 µM and 17.4 µM, respectively.

With `CCOC(=O)CNC(=O)C(c1ccc(S(=O)(=O)C(F)(F)F)cc1)N(C(=O)c1ccccc1)C1CCCCC1` (centres unmarked) [Example 48, [2-(Benzoyl-cyclohexyl-amino)-2-(4-trifluoromethanesulfonyl-phenyl)-acetylamino]-acetic acid ethyl ester], the IC50 was found to be 37.7 µM in assay [1] and 22.7 µM in assay [3] (setting [5]).

Consider `O=[N+]([O-])c1ccccc1NCC(COc1ccc(S(=O)(=O)C(F)(F)F)cc1[N+](=O)[O-])Oc1ccc(S(=O)(=O)C(F)(F)F)cc1[N+](=O)[O-]` (centres unmarked) [Example 57, [2,3-Bis-(2-nitro-4-trifluoromethanesulfonyl-phenoxy)-propyl]-(2-nitro-phenyl)-amine], for which the IC50 in assay [2] is 0.6 µM; in assay [3], > 20 µM.

With `CCOC(=O)CNC(=O)C(c1ccc(S(=O)(=O)C(F)(F)F)cc1)N(C)C(C)=O` (centres unmarked) [Example 47, [2-(Acetyl-methyl-amino)-2-(4-trifluoromethanesulfonyl-phenyl)-acetylamino]-acetic acid ethyl ester], the IC50 in assay [1] is > 100 µM.
